What all share (assay type): functional, organism-based
What all share (details): Hippocampus

Experiment [1] is filed under the species Rattus norvegicus. Put plainly: Effect on the uptake amount of [3H]choline in the hippocampal synaptosomes of AF64A-treated rats at 10e-6 M.
Experiment [2] is filed under the species Rattus norvegicus. Put plainly: Effect on the uptake amount of [3H]choline in the hippocampal synaptosomes of AF64A-treated rats at 10e-5 M.
The species named for experiment [3] is Rattus norvegicus. Put plainly: Effect on the uptake amount of [3H]choline in the hippocampal synaptosomes of AF64A-treated rats at 10e-7 M.

For `CCCC(=O)Nc1c2c(nc3ccccc13)CCN(S(=O)(=O)c1ccccc1)C2`, the figures for the HACU improvement in the experiment filed under Rattus norvegicus [1], in the experiment listed under Rattus norvegicus [2] and in the experiment listed under Rattus norvegicus [3] were 10%, 5% and 26%, respectively.

With `CCCC(=O)Nc1c2c(nc3ccccc13)C=CCC2`, the HACU improvement in the experiment listed under Rattus norvegicus [1] is 8%; in the experiment filed under Rattus norvegicus [2], -7%; in the experiment listed under Rattus norvegicus [3], 14%.

As for `CCCC(=O)Nc1c2c(nc3ncccc13)CCCC2`, the HACU improvement in the experiment filed under Rattus norvegicus [1] worked out at 10%; in the experiment filed under Rattus norvegicus [2], 13%; in the experiment listed under Rattus norvegicus [3] it was 15%.

For the compound `CCCC(=O)Nc1c2c(nc3ccccc13)CCN(C(=O)c1ccccc1)C2`, the HACU improvement in the experiment filed under Rattus norvegicus [1] was 0%; in the experiment filed under Rattus norvegicus [2], -7%; in the experiment listed under Rattus norvegicus [3] it was 7%.

Take `CCCC(=O)Nc1c2c(nc3ccccc13)C(C)CCC2` (stereo not drawn): the HACU improvement in the experiment listed under Rattus norvegicus [1] was 17%; in the experiment filed under Rattus norvegicus [2] it was 16%; in the experiment listed under Rattus norvegicus [3] it was 10%.

On to `CCCC(=O)Nc1c2c(nc3ccccc13)CCN(Cc1ccccc1)C2`, for which the HACU improvement in the experiment filed under Rattus norvegicus [1] is 11%; in the experiment filed under Rattus norvegicus [2], 21%; in the experiment listed under Rattus norvegicus [3], 10%.

`CCCC(=O)Nc1c2c(nc3cccc(F)c13)CCCC2`: the results for the HACU improvement in the experiment filed under Rattus norvegicus [1], in the experiment listed under Rattus norvegicus [2] and in the experiment listed under Rattus norvegicus [3] were 2%, 3% and 9%, respectively.

Take `Cc1oc2nc3c(c(NC(=O)CN4CCCC4=O)c2c1C)CCCC3`: the HACU improvement was found to be 72% in the experiment listed under Rattus norvegicus [1], 64% in the experiment filed under Rattus norvegicus [2] and 55% in the experiment listed under Rattus norvegicus [3].

For the compound `CCCC(=O)Nc1c2c(nc3ccccc13)CCC(c1ccccc1)C2` (stereo not drawn), the results for the HACU improvement in the experiment listed under Rattus norvegicus [1], in the experiment listed under Rattus norvegicus [2] and in the experiment listed under Rattus norvegicus [3] were -7%, -6% and -1%, respectively.

As for `O=C(CN1CCCC1=O)Nc1c2c(nc3ccccc13)CCCC2`, the HACU improvement in the experiment listed under Rattus norvegicus [1] turned out to be 17%; in the experiment filed under Rattus norvegicus [2], 14%; in the experiment filed under Rattus norvegicus [3], 15%.

`CCCC(=O)Nc1c2c(nc3cccc(C)c13)CCCC2`: the HACU improvement in the experiment filed under Rattus norvegicus [1] is -4%; in the experiment filed under Rattus norvegicus [2], 10%; in the experiment listed under Rattus norvegicus [3], -2%.

`CCCC(=O)Nc1c2c(nc3ccccc13)CCC(=O)C2`: the HACU improvement in the experiment filed under Rattus norvegicus [1], in the experiment filed under Rattus norvegicus [2] and in the experiment listed under Rattus norvegicus [3] was 14% throughout.

For the compound `Cc1oc2nc3c(c(NC(=O)CN4CC(=O)NC4=O)c2c1C)CCCC3`, the HACU improvement in the experiment filed under Rattus norvegicus [1] was found to be 12%; in the experiment listed under Rattus norvegicus [2], 16%; in the experiment listed under Rattus norvegicus [3], 5%.

As to `CCCC(=O)Nc1c2c(nc3ccccc13)C1CCN2CC1`, the HACU improvement in the experiment filed under Rattus norvegicus [1] is 7%; in the experiment filed under Rattus norvegicus [2], 10%; in the experiment filed under Rattus norvegicus [3], 7%.

With `CCCC(=O)Nc1c2c(nc3ccccc13)CCC(C)(C)C2`, the results for the HACU improvement in the experiment filed under Rattus norvegicus [1], in the experiment listed under Rattus norvegicus [2] and in the experiment listed under Rattus norvegicus [3] were 3%, 1% and -11%, respectively.

As for `CCCC(=O)Nc1c2c(nc3ccccc13)CCC(O)C2` (stereo not drawn), the HACU improvement in the experiment filed under Rattus norvegicus [1] turned out to be 16%; in the experiment listed under Rattus norvegicus [2] it was 10%; in the experiment filed under Rattus norvegicus [3], 13%.

For the compound `CCCC(=O)Nc1c2c(nc3scc(C)c13)CCCC2`, the HACU improvement in the experiment listed under Rattus norvegicus [1] was determined as 3%; in the experiment listed under Rattus norvegicus [2], 1%; in the experiment listed under Rattus norvegicus [3], 7%.

For `CCCC(=O)Nc1c2c(nc3ccccc13)CCC1(CC1)C2`, the HACU improvement turned out to be 19% in the experiment filed under Rattus norvegicus [1], 12% in the experiment listed under Rattus norvegicus [2] and 3% in the experiment listed under Rattus norvegicus [3].

As for `CCCC(=O)Nc1c2c(nc3oc(C)c(C)c13)CCCC2`, the HACU improvement is 20% in the experiment listed under Rattus norvegicus [1], 38% in the experiment filed under Rattus norvegicus [2] and 13% in the experiment filed under Rattus norvegicus [3].

Regarding `CCCC(=O)Nc1c2c(nc3sccc13)CCCC2`, the HACU improvement in the experiment listed under Rattus norvegicus [1] turned out to be 1%; in the experiment listed under Rattus norvegicus [2], 12%; in the experiment filed under Rattus norvegicus [3], 1%.

Consider `CCCC(=O)Nc1c2c(nc3ccccc13)CCN(C)C2`, for which the figures for the HACU improvement in the experiment listed under Rattus norvegicus [1], in the experiment filed under Rattus norvegicus [2] and in the experiment listed under Rattus norvegicus [3] were 9%, 19% and 13%, respectively.

In the case of `CCCC(=O)Nc1c2c(nc3cc(F)ccc13)CCCC2`, the results for the HACU improvement in the experiment filed under Rattus norvegicus [1], in the experiment filed under Rattus norvegicus [2] and in the experiment listed under Rattus norvegicus [3] were 3%, -15% and -1%, respectively.

As for `Cc1oc2nc3c(c(NC(=O)Cn4ccnc4)c2c1C)CCCC3`, the HACU improvement was 4% in the experiment filed under Rattus norvegicus [1], 3% in the experiment filed under Rattus norvegicus [2] and 5% in the experiment listed under Rattus norvegicus [3].

For `CCCC(=O)Nc1c2c(nc3ccccc13)CCCC2`, the figures for the HACU improvement in the experiment filed under Rattus norvegicus [1], in the experiment listed under Rattus norvegicus [2] and in the experiment filed under Rattus norvegicus [3] were 24%, 28% and 13%, respectively.

In the case of `CCCC(=O)Nc1c2c(nc3ccccc13)C1CCC2CC1`, the HACU improvement is -6% in the experiment filed under Rattus norvegicus [1], -3% in the experiment listed under Rattus norvegicus [2] and 5% in the experiment filed under Rattus norvegicus [3].

On to `CCCC(=O)Nc1c2c(nc3sc(C)c(C)c13)CCCC2`, for which the HACU improvement in the experiment listed under Rattus norvegicus [1] is 11%; in the experiment filed under Rattus norvegicus [2], 20%; in the experiment listed under Rattus norvegicus [3] it was 4%.

Turning to `CCCC(=O)Nc1c2c(nc3ccc(F)cc13)CCCC2`, the figures for the HACU improvement in the experiment filed under Rattus norvegicus [1], in the experiment filed under Rattus norvegicus [2] and in the experiment filed under Rattus norvegicus [3] were -5%, 7% and 2%, respectively.

On to `CCCC(=O)Nc1c2c(nc3ccccc13)CCC(C)C2` (stereo not drawn), for which the HACU improvement in the experiment listed under Rattus norvegicus [1] was -16%; in the experiment filed under Rattus norvegicus [2], 6%; in the experiment listed under Rattus norvegicus [3], -6%.

Turning to `CCCC(=O)Nc1c2c(nc3ccsc13)CCCC2`, the HACU improvement in the experiment listed under Rattus norvegicus [1] stood at 4%; in the experiment listed under Rattus norvegicus [2] it was 15%; in the experiment filed under Rattus norvegicus [3], 7%.

Turning to `CNCC(=O)Nc1c2c(nc3oc(C)c(C)c13)CCCC2`, the HACU improvement in the experiment listed under Rattus norvegicus [1] was 10%; in the experiment listed under Rattus norvegicus [2], 3%; in the experiment listed under Rattus norvegicus [3], 14%.

Turning to `CCCC(=O)Nc1c2c(nc3oc(C)nc13)CCCC2`, the HACU improvement stood at 2% in the experiment filed under Rattus norvegicus [1], 18% in the experiment filed under Rattus norvegicus [2] and 4% in the experiment listed under Rattus norvegicus [3].

The values are drawn from ChEMBL document CHEMBL1150023, “Design and syntheses of 4-acylaminopyridine derivatives: Novel high affinity choline uptake enhancers II” (Bioorg Med Chem Lett, 1995).
